The target of the test is MDM2 (Homo sapiens, UniProt Q00987). The test is described as follows: ITC. It is filed as binding.

We go through one compound from publication PMC6054458 (Molecular cancer therapeutics, 2017).

As a reminder, the Kd is the constant that tells how readily two partners part at equilibrium. Read a low Kd as tighter binding.

Chain of MDM2 (Q00987 428-491 limits assumed): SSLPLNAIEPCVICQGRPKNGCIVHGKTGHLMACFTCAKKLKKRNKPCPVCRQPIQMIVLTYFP

`O=C(CCl)Nc1cc(O)c2c(c1)C(=O)c1cccc(O)c1C2=O` [AQ-101] showed a Kd of 370 nM.
